# Values joined by “and” are separate entries in the source; they are usually repeats but may differ in a detail not shown here. Identical values can stand only once. “Also recorded” adds a separate entry of the source.
# How the values were obtained:
# [1] = system: acetylcholine-mediated AF; test: AF cardioversion in canine acetylcholine-mediated AF model (isolated coronary-perfused right atrial preparations); conditions: for AF cardioversion (atria cardioverted / tested): flecainide 1.5 μM
# Protocol: This investigation conforms with the Guide for Care and Use of Laboratory Animals. Hearts from purpose-bred adult male Beagle dogs (10-16 kg, 10-19 months old) were obtained from Envigo (Denver, PA). Dogs were sedated with ketamine (10 mg/kg, intramuscularly [IM]) and xylazine (2 mg/kg, IM). Prior to euthanasia with Euthasol solution (pentobarbital sodium and phenytoin sodium; 0.22 ml/kg, intravenously [IV]), heparin (human pharmaceutical grade, 1,000 U/kg, IV) was administered. The heart was then isolated via a left thoracotomy. Retrograde aortic perfusion of the hearts with ice-cold cardioplegic solution (modified Krebs-Henseleit solution [K-H]; 16 mM KCl) was immediately performed to clear the coronary vasculature of blood. The hearts were then placed in a sealed container containing ice-cold cardioplegic solution and transported to our institution via a private courier in an insulated package surrounded by icepacks.
# (§1) Experiments were performed using isolated arterially-perfused canine preparations perfused with Tyrode's solution containing (in mM): NaCl 129, KCl 4, NaH2PO4 0.9, NaHCO3 20, CaCl2 1.8, MgSO4 0.5, glucose 5.5, insulin lunit/liter, bubelled with 95% O2 and 5% CO2. pH=7.4. Preparations consisting of the right atrium with a rim of right ventricle (1.0-2.0 cm) were isolated from the canine hearts (FIG. 1). The ostium of the right coronary artery was cannulated with polyethylene tubing, and the preparations were perfused with cold Tyrode's solution (8°-12° C.) containing 8.5 [K^+]0. With continuous coronary perfusion, all ventricular branches of the right coronary artery were immediately clamped with metal clips (1.5×10 mm; Kent Scientific Corp., Torrington, CT). The total time from excision of the heart to cannulation and perfusion of the artery was 4 minutes. […] coronary branches were ligated using silk thread. The preparations were placed in a temperature-controlled bath (8×6×4 cm) and perfused at a rate of 10-15 mL/min using Tyrode's solution. The temperature was maintained at 37° C.±0.5° C. (PolyStat; Cole Parmer Instrument, IL). The perfusate was delivered to the artery by a roller pump (MasterFlex L/S, Cole Parmer Instrument). An air trap was used to avoid bubbles in the perfusion line.
# A well-established acetylcholine (ACh)-mediated non-self-terminating (persistent) AF experimental model was used in the current study.^4 AF was induced by either delivering a single premature stimulus or by rapid pacing (CLs=40-80 ms, for 2-5 seconds). The efficacy and time course for flecainide to cardiovert AF (induced at 4 mM potassium) was studied at 4 mM (baseline) and at 5, 6, and 8 mM of potassium concentration ([K^+]0). Sustained AF (here defined as lasting >1 hour) was induced in 100% experiments in the presence of 4 mM [K^+]. 5-7 minutes after non-self-terminating AF was first introduced at 4 mM [K^+]0, flecainide was added to the Tyrode's perfusate containing either 4 mM [K^+]0 or with a concomitant increase in potassium concentration (to 5, 6, or 8 mM).
# Additionally, the capability of elevated potassium (5, 6, and 8 mM) alone to terminate AF was investigated. In these experiments, sustained AF was first induced at 4 mM [K^+]0 and 5-7 minutes later potassium concentrations were increased (to 5, 6, or 8 mM). To mimic hypokalemia, AF termination efficacy of flecainide was tested at 3 mM [K^+]0. If AF was not terminated by the tested conditions in 45 minutes, the AF was considered as “non-terminating”. In the experiments in which AF was cardioverted by tested conditions tested, electrical re-induction of AF was attempted within 1-5 minutes after AF termination (≥5 attempts in ≥2 atrial locations).
# Overall, 41 right atrioventricular preparations isolated from 41 canine hearts were used in the study, with 46 experiments investigating AF cardioversion and 11 experiments investigating electrophysiological parameters in atria and ventricles. […]
# ACh-mediated AF = conditions: elevation of [K+]0 from 4 to 6-8 mM; isolated pig atria; cited from earlier work
# ventricles = test: Electrophysiological parameters (APD, ERP, DTE) in ventricles of isolated arterially-perfused canine preparations; conditions: CL 500 ms
# Protocol: as §1
# (§2) Transmembrane action potential (AP) recordings (sampling rate 41 kHz) were obtained from the right atrium and ventricle using floating glass microelectrodes (10-25 MΩ DC resistance). Glass microelectrodes were connected to a high-input impedance intracellular amplifier (Electro-705; World Precision Instruments, Sarasota, FL). A pseudo-electrocardiogram (ECG) was recorded using two electrodes consisting of Ag/AgCl half cells placed in the Tyrode's solution bathing the preparation, 1.0 to 1.2 cm from opposite ends of the atrial coronary-perfused preparations (FIG. 1). The signals were amplified, digitized, and analyzed (Cambridge Electronic Design, Cambridge, England). Effective refractory period (ERP) was measured by delivering premature stimuli after every 10th basic beat at a pacing cycle length (CL) of 500 ms. The diastolic threshold of excitation (DTE) was determined by increasing stimulus intensity in 0.01 mA steps starting from 0.1 mA, until a steady 1:1 activation was achieved. Post-repolarization refractoriness (PRR) was recognized when ERP exceeded an action potential duration at 90% repolarization (APD90) in the ventricle and action potential duration at 70% repolarization (APD70) in atria. Ventricular ERP coincides with APD90, whereas atrial ERP generally coincides with APD70.^4 The electrophysiological measurements were performed following at least 20 min of perfusion with flecainide and 5 min with elevated potassium concentrations. The electrophysiological measurements were obtained at a CL of 500 ms.
# [2] = system: acetylcholine-mediated AF; test: Electrical re-induction of AF after AF termination in isolated canine right atrial preparations
# Protocol: A well-established acetylcholine (ACh)-mediated non-self-terminating (persistent) AF experimental model was used in the current study.^4 AF was induced by either delivering a single premature stimulus or by rapid pacing (CLs=40-80 ms, for 2-5 seconds). The efficacy and time course for flecainide to cardiovert AF (induced at 4 mM potassium) was studied at 4 mM (baseline) and at 5, 6, and 8 mM of potassium concentration ([K^+]0). Sustained AF (here defined as lasting >1 hour) was induced in 100% experiments in the presence of 4 mM [K^+]. 5-7 minutes after non-self-terminating AF was first introduced at 4 mM [K^+]0, flecainide was added to the Tyrode's perfusate containing either 4 mM [K^+]0 or with a concomitant increase in potassium concentration (to 5, 6, or 8 mM). Additionally, the capability of elevated potassium (5, 6, and 8 mM) alone to terminate AF was investigated. In these experiments, sustained AF was first induced at 4 mM [K^+]0 and 5-7 minutes later potassium concentrations were increased (to 5, 6, or 8 mM). To mimic hypokalemia, AF termination efficacy of flecainide was tested at 3 mM [K^+]0. If AF was not terminated by the tested conditions in 45 minutes, the AF was considered as “non-terminating”. In the experiments in which AF was cardioverted by tested conditions tested, electrical re-induction of AF was attempted within 1-5 minutes after AF termination (≥5 attempts in ≥2 atrial locations).
# atria = test: Electrophysiological parameters (APD, ERP, PRR, DTE) in atria of isolated arterially-perfused canine preparations
# Protocol: as §1, §2
# recent-onset AF = conditions: flecainide via oral inhalation; patients with recent-onset AF; cited from earlier work
# [3] = [K+]0 from 4 to 6 mM, CL 500 ms
# [4] = after cardioversion by flecainide and elevated [K+]0 (5-8 mM)
# [5] = after cardioversion by flecainide at [K+]0 4 mM
# [6] = flecainide 1.5 μM added at [K+]0 6 mM, CL 500 ms
# [7] = flecainide at [K+]0 4 mM, CL 500 ms
smiles,measurement,setting,value
[K+] [[K^+]0],"AF terminated, % of experiments / atria","[1]; no flecainide, [K+]0 from 4 to 8 mM",100%
same,AF termination (atria terminated / tested),"[1]; no flecainide, [K+]0 increased from 4 to 5 mM",did not terminate and 0/5 and did not cardiovert
same,AF termination (atria terminated / tested),"[1]; no flecainide, [K+]0 increased from 4 to 6 mM",2/6
same,AF termination (atria terminated / tested),"[1]; no flecainide, [K+]0 increased from 4 to 8 mM",4/4
same,AF cardioversion (atria cardioverted / tested),ACh-mediated AF,3/4
same,DTE in ventricles,ventricles; 6 mM [K+]0 vs 4 mM,not significantly affected
same,APD in ventricles,ventricles; [K+]0 from 4 to 6 mM,significantly abbreviated
same,ERP in ventricles,ventricles; [K+]0 from 4 to 6 mM,significantly abbreviated
same,Duration of re-induced AF,"[2]; 6 mM [K+]0 alone, in one of two experiments",20 min
same,AF inducible after termination (atria),[2]; 8 mM [K+]0 alone,4/4
same,Duration of re-induced AF episodes,[2]; 8 mM [K+]0 alone,≤ 26 s
same,AF/AT inducibility after termination,[2]; two experiments in which 6 mM [K+]0 alone terminated AF,readily inducible in both
same,DTE in atria,"atria; 6 mM [K+]0 vs 4 mM, CL 500 ms",not significantly affected
same,APD in atria,atria; [3],abbreviated
same,ERP in atria,atria; [3],significantly prolonging
same,Post-repolarization refractoriness (PRR),atria; [3],atrial-selective induction
O=C(NCC1CCCCN1)c1cc(OCC(F)(F)F)ccc1OCC(F)(F)F (stereo not shown) [flecainide],Patients restored to sinus rhythm,recent-onset AF,approximately 50%
same,AF cardioversion (atria cardioverted / tested),[1]; [K+]0 3 mM (simulated hypokalemia),1/6
same,AF cardioversion (atria cardioverted / tested),"[1]; [K+]0 4 mM, ACh 0.5 μM",moderately effective
same,AF cardioversion (atria cardioverted / tested),"[1]; [K+]0 4 mM, ACh 0.5 μM, listed as Flecainide",3/6
same,AF cardioversion (atria cardioverted / tested),[1]; [K+]0 elevated to 5 mM,highly effective
same,AF cardioversion (atria cardioverted / tested),"[1]; [K+]0 elevated to 5 mM, listed as Flecainide",5/5
same,AF cardioversion (atria cardioverted / tested),[1]; [K+]0 elevated to 6 mM,highly effective
same,AF cardioversion (atria cardioverted / tested),"[1]; [K+]0 elevated to 6 mM, listed as Flecainide",5/5
same,AF cardioversion (atria cardioverted / tested),[1]; [K+]0 elevated to 8 mM,highly effective
same,AF cardioversion (atria cardioverted / tested),"[1]; [K+]0 elevated to 8 mM, listed as Flecainide",4/4
same,Time to conversion (time course of flecainide-mediated AF termination),"[1]; flecainide, elevation of [K+]0 from 4 to 8 mM vs 4 mM",abbreviated
same,ERP in ventricle,ventricles; flecainide 1.5 μM added at [K+]0 6 mM,prolongation
same,APD in ventricles,ventricles; flecainide at [K+]0 4 mM,no significant change
same,AF/AT inducibility after cardioversion,[2]; [4],either not inducible or induced for a very brief episode; also recorded: either not inducible or induced for very brief episodes
same,Duration of re-induced AF/AT episodes,[2]; [4],< 100 s
same,"Duration of re-induced AF/AT episodes, in most cases","[2]; after cardioversion by flecainide and elevated [K+]0 (5-8 mM), in most cases",< 10 s
same,AF or atrial tachycardia inducible after cardioversion (preparations),[2]; [5],3/3
same,Duration of re-induced AF/AT episodes,[2]; [5],≤ 300 s
same,Duration of re-induced AF episodes,[2]; flecainide at 3 mM [K+]0 (hypokalemia),≤ 1860 s
same,AF re-induction after termination,"[2]; flecainide at 3 mM [K+]0 (hypokalemia), the only atria terminated",readily re-induced
same,"Depression of excitability, atria vs ventricles",atria; combined flecainide and elevated [K+]0 (6 mM),atrial predominant depression of excitability; also recorded: atrial preferential depression of excitability
same,ERP in atria,atria; [6],much more pronounced in the atria
same,Post-repolarization refractoriness (PRR),atria; [6],atrial predominant development
same,DTE,"atria; flecainide alone at [K+]0 4 mM, CL 500 ms",moderate atrial predominant increase
same,APD in atria,atria; [7],no significant change
same,ERP in atria,atria; [7],substantial lengthening
same,DTE,"atria; flecainide in the presence of 6 mM [K+]0, CL 500 ms",large atrial-selective increase

# Source: patent US20260061000A1, “COMPOSITIONS AND METHODS FOR THE TREATMENT OF CARDIAC ARRHYTHMIAS, INCLUDING ATRIAL FIBRILLATION” (Lankenau Institute for Medical Research, priority 2022, published 2026)
